Among the data in patent US9550775B2, “Substituted triazolopyridines and methods of use thereof” (GENENTECH, INC., priority 2013, dated 2017) are IC50 values, retold here.

As a reminder, the IC50 is the point on the concentration scale where inhibition reaches its midpoint.

For the assay, the target named is hNav1.7 (Homo sapiens (Human), UniProt Q15858). The assay is described as follows: Tritiated sulfonamide competitive binding to membranes from cells expressing hNav1.7 and the β1 subunit.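 Also: displacement of the tritiated ligand from recombinant cell membranes, read by liquid scintillation counting of filter-bound radioactivity, nonspecific binding defined with 1 µM unlabelled compound.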 The following applies: 100 pM [3H]compound, 18 h, room temperature; inactivated state of NaV1.7 membrane binding; read-out: NaV1.7 Ligand Binding Assay (IC50).
Chain of hNav1.7 (Q15858 other isoform, or with tags, fused parts or gaps): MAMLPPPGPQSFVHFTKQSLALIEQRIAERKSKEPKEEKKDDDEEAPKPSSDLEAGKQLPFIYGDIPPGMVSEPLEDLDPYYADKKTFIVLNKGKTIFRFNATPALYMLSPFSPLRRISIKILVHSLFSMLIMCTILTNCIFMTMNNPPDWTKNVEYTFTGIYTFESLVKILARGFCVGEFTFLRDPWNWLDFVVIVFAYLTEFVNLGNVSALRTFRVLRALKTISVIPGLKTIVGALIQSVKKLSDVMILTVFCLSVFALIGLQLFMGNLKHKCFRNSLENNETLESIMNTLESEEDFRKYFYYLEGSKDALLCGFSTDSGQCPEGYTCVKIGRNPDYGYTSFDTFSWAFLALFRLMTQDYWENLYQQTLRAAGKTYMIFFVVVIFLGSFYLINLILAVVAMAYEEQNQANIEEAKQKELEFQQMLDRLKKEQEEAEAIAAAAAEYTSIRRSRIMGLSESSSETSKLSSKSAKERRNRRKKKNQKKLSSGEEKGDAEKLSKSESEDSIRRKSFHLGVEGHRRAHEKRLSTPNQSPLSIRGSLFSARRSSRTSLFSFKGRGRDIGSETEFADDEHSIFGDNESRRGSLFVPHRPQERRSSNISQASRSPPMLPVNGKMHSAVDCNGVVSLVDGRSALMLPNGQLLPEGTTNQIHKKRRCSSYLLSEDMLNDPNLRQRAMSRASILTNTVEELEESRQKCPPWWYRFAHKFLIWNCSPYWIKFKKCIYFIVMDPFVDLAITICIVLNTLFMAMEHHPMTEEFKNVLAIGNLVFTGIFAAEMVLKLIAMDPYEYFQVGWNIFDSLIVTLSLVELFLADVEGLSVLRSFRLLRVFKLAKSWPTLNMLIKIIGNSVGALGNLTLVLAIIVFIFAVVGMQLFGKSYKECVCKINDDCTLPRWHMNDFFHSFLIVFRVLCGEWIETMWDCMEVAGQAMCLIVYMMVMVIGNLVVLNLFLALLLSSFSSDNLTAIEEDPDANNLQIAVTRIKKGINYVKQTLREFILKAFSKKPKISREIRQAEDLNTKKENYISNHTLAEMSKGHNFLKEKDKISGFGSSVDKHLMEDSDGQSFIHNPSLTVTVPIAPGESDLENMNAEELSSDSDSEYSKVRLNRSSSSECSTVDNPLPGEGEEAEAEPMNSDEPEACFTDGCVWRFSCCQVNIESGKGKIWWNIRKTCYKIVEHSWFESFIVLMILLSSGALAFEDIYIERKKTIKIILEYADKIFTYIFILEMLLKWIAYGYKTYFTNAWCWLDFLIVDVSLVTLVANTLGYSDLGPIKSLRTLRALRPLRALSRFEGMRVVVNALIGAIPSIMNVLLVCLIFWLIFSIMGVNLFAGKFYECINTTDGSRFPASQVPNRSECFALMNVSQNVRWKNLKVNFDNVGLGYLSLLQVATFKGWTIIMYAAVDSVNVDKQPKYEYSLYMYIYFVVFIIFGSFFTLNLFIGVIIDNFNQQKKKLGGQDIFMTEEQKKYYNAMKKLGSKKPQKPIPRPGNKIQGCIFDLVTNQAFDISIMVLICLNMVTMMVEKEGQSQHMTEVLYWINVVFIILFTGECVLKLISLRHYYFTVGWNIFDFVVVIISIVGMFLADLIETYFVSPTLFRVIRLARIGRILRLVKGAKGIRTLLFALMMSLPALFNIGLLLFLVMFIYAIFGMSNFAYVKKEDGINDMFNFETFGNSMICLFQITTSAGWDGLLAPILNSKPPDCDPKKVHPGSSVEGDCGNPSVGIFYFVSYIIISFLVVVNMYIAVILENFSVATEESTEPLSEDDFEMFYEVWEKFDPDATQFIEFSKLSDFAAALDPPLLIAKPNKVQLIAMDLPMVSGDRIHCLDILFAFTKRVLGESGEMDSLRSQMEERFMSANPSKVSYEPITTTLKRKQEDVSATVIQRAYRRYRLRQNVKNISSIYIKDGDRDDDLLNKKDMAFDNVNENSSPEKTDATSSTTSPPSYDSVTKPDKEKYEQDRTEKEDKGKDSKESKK
Chain of hNav1.7 (Q07699 19-218 partner): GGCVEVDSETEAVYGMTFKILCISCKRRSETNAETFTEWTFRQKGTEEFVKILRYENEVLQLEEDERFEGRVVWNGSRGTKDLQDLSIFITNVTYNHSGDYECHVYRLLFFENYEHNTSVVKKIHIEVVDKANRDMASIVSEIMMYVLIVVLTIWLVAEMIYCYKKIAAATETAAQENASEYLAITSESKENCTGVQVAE
Turning to `CC1(C)C2CCC1(C)[C@H](Oc1cc3nnc(NS(C)(=O)=O)n3cc1C1CC1)C2` (stereo in doubt) [Example 31, N-(6-cyclopropyl-7-(((1S,2R,4R)-1,7,7-trimethylbicyclo-[2.2.1]heptan-2-yl)oxy)-[1,2,4]triazolo[4,3-a]pyridin-3-yl)methanesulfonamide], the 50% inhibitory concentration (IC50) worked out at 0.26 µM.

On to `CC1(C)C2CC[C@]1(C)[C@H](Oc1cc3nnc(NS(C)(=O)=O)n3cc1C1CC1)C2` (stereo in doubt) [Example 86], for which the IC50 was determined as 0.26 µM.

Consider `CS(=O)(=O)Nc1nnc2cc(OCC3CCCCC3)c(Br)cn12` [Example 6], for which the IC50 was determined as 0.0903 µM.

For `C=Cc1cn2c(NS(C)(=O)=O)nnc2cc1OCC1(C)CCCCC1` [Example 7, N-(7-((1-methylcyclohexyl)methoxy)-6-vinyl-[1,2,4]-triazolo[4,3-a]pyridin-3-yl)methanesulfonamide], the IC50 is 0.0653 µM.

In the case of `C=C(C)c1cn2c(NS(C)(=O)=O)nnc2cc1OCC12CC3CC(CC(C3)C1)C2` [Example 8, N-(7-(adamantan-1-ylmethoxy)-6-(prop-1-en-2-yl)-[1,2,4]-triazolo[4,3-a]pyridin-3-yl)methanesulfonamide], the IC50 is 0.0512 µM.

Consider `CS(=O)(=O)Nc1nnc2cc(OC[C@H]3CC[C@H](C(F)(F)F)CC3)c(C3CC3)cn12` [Example 13, N-(6-cyclopropyl-7-(((trans)-4-(trifluoromethyl)cyclohexyl)-methoxy)-[1,2,4]triazolo[4,3-a]pyridin-3-yl)methanesulfonamide], for which the IC50 turned out to be 0.0226 µM.

As for `CC1(COc2cc3nnc(NS(C)(=O)=O)n3cc2C2CC2)CCCCC1` [Example 14, N-(6-cyclopropyl-7-((1-methylcyclohexyl)methoxy)-[1,2,4]-triazolo[4,3-a]pyridin-3-yl)methanesulfonamide], the IC50 stood at 0.014 µM.

With `CCc1cn2c(NS(=O)(=O)N3CC(F)C3)nnc2cc1OCC12CC3CC(CC(C3)C1)C2` [Example 15, N-(7-((3r,5r,7r)-adamantan-1-ylmethoxy)-6-ethyl-[1,2,4]triazolo[4,3-a]pyridin-3-yl)-3-fluoroazetidine-1-sulfonamide], the IC50 is 0.138 µM.

Turning to `O=S(=O)(Nc1nnc2cc(OCC3CCC4(CC3)CC4)c(C3CC3)cn12)C1CC1` [Example 16, N-(6-cyclopropyl-7-(spiro[2.5]octan-6-ylmethoxy)-[1,2,4]triazolo[4,3-a]pyridin-3-yl)cyclopropanesulfonamide], the IC50 came out at 0.0217 µM.

As for `CCS(=O)(=O)Nc1nnc2cc(OCC34CC5CC(CC(C5)C3)C4)c(C3CC3)cn12` [Example 17, N-(7-((3r,5r,7r)-adamantan-1-ylmethoxy)-6-cyclopropyl-[1,2,4]triazolo[4,3-a]pyridin-3-yl)ethanesulfonamide], the IC50 is 0.00426 µM.

As for `CC1(S(=O)(=O)Nc2nnc3cc(OCC45CC6CC(CC(C6)C4)C5)c(C4CC4)cn23)CC1` [Example 19, N-(7-((3r,5r,7r)-adamantan-1-ylmethoxy)-6-cyclopropyl-[1,2,4]triazolo[4,3-a]pyridin-3-yl)-1-methylcyclopropane-1-sulfonamide], the IC50 is 0.00719 µM.

For the molecule `CS(=O)(=O)Nc1nnc2cc(OCCC34CC5CC(CC(C5)C3)C4)c(C3CC3)cn12` [Example 21], the IC50 amounted to 0.00851 µM.

For the molecule `O=S(=O)(Nc1nnc2cc(OCCC34CC5CC(CC(C5)C3)C4)c(C3CC3)cn12)C1CC1` [Example 22], the IC50 was 0.00735 µM.

As for `O=S(=O)(Nc1nnc2cc(OC3C4CC5CC(C4)CC3C5)c(C3CC3)cn12)C1CC1` (centres unmarked) [Example 24, N-(7-(adamantan-2-yloxy)-6-cyclopropyl-[1,2,4]triazolo-[4,3-a]pyridin-3-yl)cyclopropanesulfonamide], the IC50 was found to be 0.0658 µM.

With `CS(=O)(=O)Nc1nnc2cc(OCC3CC4C5CCC(C5)C4C3)c(C3CC3)cn12` (centres unmarked) [Example 25], the IC50 is 0.00524 µM.

In the case of `CC1(C)[C@H]2CC[C@H](COc3cc4nnc(NS(C)(=O)=O)n4cc3C3CC3)[C@@H]1C2` [Example 28, N-(6-cyclopropyl-7-(((1S,2S,5S)-6,6-dimethylbicyclo[3.1.1]heptan-2-yl)methoxy)-[1,2,4]triazolo[4,3-a]pyridin-3-yl)methanesulfonamide], the IC50 turned out to be 0.0026 µM.

On to `CC1(C)[C@H]2CC[C@H](COc3cc4nnc(NS(=O)(=O)N5CCC5)n4cc3C3CC3)[C@@H]1C2` [Example 30], for which the half-inhibitory concentration (IC50) was 0.00675 µM.

As to `CS(=O)(=O)Nc1nnc2cc(OC[C@H]3CC[C@H](C)CC3)c(Br)cn12` [Example 32], the IC50 worked out at 0.0866 µM.

For the molecule `CS(=O)(=O)Nc1nnc2cc(OC[C@H]3CC[C@H](C)CC3)c(C3CC3)cn12` [Example 33], the IC50 amounted to 0.0184 µM.

`O=S(=O)(Nc1nnc2cc(OC3CCC4(CCCCC4)CC3)c(C3CC3)cn12)C1CC1` [Example 35, N-(6-cyclopropyl-7-(spiro[5.5]undecan-3-yloxy)-[1,2,4]triazolo-[4,3-a]pyridin-3-yl)cyclopropanesulfonamide]: the half-maximal inhibitory concentration (IC50) is 0.0513 µM.

Take `CS(=O)(=O)Nc1nnc2cc(OCC3(C(F)(F)F)CCCC3)c(C3CC3)cn12` [Example 37]: the IC50 was 0.0452 µM.

`O=S(=O)(Nc1nnc2cc(COc3ccc(Cl)c(Cl)c3)c(C3CC3)cn12)C1CC1` [Example 39]: the IC50 came out at 0.00683 µM.

Take `O=S(=O)(Nc1nnc2cc(COc3ccc(Cl)c(Cl)c3)c(C3CC3)cn12)N1CCC1` [Example 41, N-(6-cyclopropyl-7-((3,4-dichlorophenoxy)methyl)-[1,2,4]triazolo[4,3-a]pyridin-3-yl)azetidine-1-sulfonamide]: the IC50 came to 0.0189 µM.

Take `O=S(=O)(Nc1nnc2cc(COc3cc(Cl)cc(OC(F)(F)F)c3)c(C3CC3)cn12)C1CC1` [Example 42, N-(7-((3-chloro-5-(trifluoromethoxy)phenoxy)methyl)-6-cyclopropyl-[1,2,4]triazolo[4,3-a]pyridin-3-yl)cyclopropanesulfonamide]: the IC50 was found to be 0.00281 µM.

As for `CS(=O)(=O)Nc1nnc2cc(COc3cc(Cl)cc(OC(F)(F)F)c3)c(C3CC3)cn12` [Example 43, N-(7-((3-chloro-5-(trifluoromethoxy)phenoxy)methyl)-6-cyclopropyl-[1,2,4]triazolo[4,3-a]pyridin-3-yl)methanesulfonamide], the IC50 is 0.0025 µM.

For the molecule `Cc1cc(Cl)cc(OCc2cc3nnc(NS(C)(=O)=O)n3cc2C2CC2)c1` [Example 47, N-(7-((3-chloro-5-methylphenoxy)methyl)-6-cyclopropyl-[1,2,4]triazolo[4,3-a]pyridin-3-yl)methanesulfonamide], the IC50 came out at 0.00729 µM.

Consider `Cc1cc(Cl)cc(OCc2cc3nnc(NS(=O)(=O)C4CC4)n3cc2C2CC2)c1` [Example 48, N-(7-((3-chloro-5-methylphenoxy)methyl)-6-cyclopropyl-[1,2,4]triazolo[4,3-a]pyridin-3-yl)cyclopropanesulfonamide], for which the IC50 was determined as 0.00633 µM.

For `CC1(S(=O)(=O)Nc2nnc3cc(COc4cc(Cl)cc(OC(F)(F)F)c4)c(C4CC4)cn23)CC1` [Example 49, N-(7-((3-chloro-5-(trifluoromethoxy)phenoxy)methyl)-6-cyclopropyl-[1,2,4]triazolo[4,3-a]pyridin-3-yl)-1-methylcyclopropane-1-sulfonamide], the IC50 was 0.00394 µM.

`CC1(S(=O)(=O)Nc2nnc3cc(COc4cc(Cl)cc(Cl)c4)c(C4CC4)cn23)CC1` [Example 50, N-(6-cyclopropyl-7-((3,5-dichlorophenoxy)methyl)-[1,2,4]-triazolo[4,3-a]pyridin-3-yl)-1-methylcyclopropane-1-sulfonamide]: the IC50 turned out to be 0.00487 µM.

For the molecule `CC1(COc2cc3nnc(NS(=O)(=O)C4CC4)n3cc2C2CC2)CCC(F)(F)CC1` [Example 53, N-(6-cyclopropyl-7-((4,4-difluoro-1-methylcyclohexyl)methoxy)-[1,2,4]triazolo[4,3-a]pyridin-3-yl)cyclopropanesulfonamide], the IC50 is 0.0674 µM.

Consider `CS(=O)(=O)Nc1nnc2cc(OCC3CCCCC3)c(Br)cn12` [Example 61, N-(6-bromo-7-(cyclohexylmethoxy)-[1,2,4]triazolo[4,3-a]pyridin-3-yl)methanesulfonamide], for which the IC50 was determined as 0.09 µM.

For the molecule `C=Cc1cn2c(NS(C)(=O)=O)nnc2cc1OCC1(C)CCCCC1` [Example 62, N-(7-((1-methylcyclohexyl)methoxy)-6-vinyl-[1,2,4]triazolo-[4,3-a]pyridin-3-yl)methanesulfonamide], the IC50 was found to be 0.065 µM.

Take `C=C(C)c1cn2c(NS(C)(=O)=O)nnc2cc1OCC12CC3CC(CC(C3)C1)C2` [Example 63, N-(7-((3r,5r,7r)-adamantan-1-ylmethoxy)-6-(prop-1-en-2-yl)-[1,2,4]triazolopyridin-3-yl)methanesulfonamide]: the IC50 came out at 0.051 µM.

As to `CS(=O)(=O)Nc1nnc2cc(OC[C@H]3CC[C@H](C(F)(F)F)CC3)c(C3CC3)cn12` [Example 68, N-(6-cyclopropyl-7-(((trans)-4-(trifluoromethyl)cyclohexyl)methoxy)-[1,2,4]triazolo[4,3-a]pyridin-3-yl)methanesulfonamide], the IC50 stood at 0.023 µM.

For the molecule `CCc1cn2c(NS(=O)(=O)N3CC(F)C3)nnc2cc1OCC12CC3CC(CC(C3)C1)C2` [Example 70, N-(7-((3r,5r,7r)-adamantan-1-ylmethoxy)-6-ethyl-[1,2,4]triazolo[4,3-a]pyridin-3-yl)-3-fluoroazetidine-1-sulfonamide], the IC50 came to 0.14 µM.

Regarding `CCS(=O)(=O)Nc1nnc2cc(OCC34CC5CC(CC(C5)C3)C4)c(C3CC3)cn12` [Example 72, N-(7-((3r,5r,7r)-adamantan-1-ylmethoxy)-6-cyclopropyl-[1,2,4]triazolo[4,3-a]pyridin-3-yl)ethanesulfonamide], the IC50 worked out at 0.004 µM.

With `CC1(S(=O)(=O)Nc2nnc3cc(OCC45CC6CC(CC(C6)C4)C5)c(C4CC4)cn23)CC1` [Example 74, N-(7-((3r,5r,7r)-adamantan-1-ylmethoxy)-6-cyclopropyl-[1,2,4]triazolo[4,3-a]pyridin-3-yl)-1-methylcyclopropane-1-sulfonamide], the IC50 stood at 0.007 µM.

Regarding `CS(=O)(=O)Nc1nnc2cc(OCCC34CC5CC(CC(C5)C3)C4)c(C3CC3)cn12` [Example 76, N-(7-(2-43r,5r,7r)-adamantan-1-yl)ethoxy)-6-cyclopropyl-[1,2,4]triazolo[4,3-a]pyridin-3-yl)methanesulfonamide], the IC50 turned out to be 0.009 µM.
